The values below are quoted from earlier work in patent US9227980B2, “Methods for the purification of cucurbituril” (CAMBRIDGE ENTERPRISE LIMITED, priority 2009, dated 2016).

SMILES strings stand for the structures.

Take `O=C1N2CN3C(=O)N4CN5C(=O)N6CN7C(=O)N8CN9C(=O)N%10CN1C1C2N2CN%11C(=O)N(CN%12C(=O)N(CN%13C(=O)N(CN%14C(=O)N(CN1C2=O)C%10C9%14)C8C7%13)C6C5%12)C4C3%11` (centres unmarked) [CB[5]]: the “solubility in water (qualitative)” value is recorded as “soluble in water”. As for `O=C1N2CN3C(=O)N4CN5C(=O)N6CN7C(=O)N8CN9C(=O)N%10CN%11C(=O)N%12CN1C1C2N2CN%13C(=O)N(CN%14C(=O)N(CN%15C(=O)N(CN%16C(=O)N(CN%17C(=O)N(CN1C2=O)C%12C%11%17)C%10C9%16)C8C7%15)C6C5%14)C4C3%13` (centres unmarked) [CB[6]], the “solubility in water (qualitative)” value was “are not”.
